Where a name gives a salt, the structure may show the parent alone.
Legend:
[1] = system: A2780 human ovarian carcinoma; conditions: compared with other HCTs reported to date; cited from earlier work
[2] = system: M-109 lung carcinoma; conditions: compared with other HCTs reported to date; cited from earlier work
[3] = system: L1210 leukemia; conditions: compared with other HCTs reported to date; cited from earlier work
[4] = vs hydroxyurea; cited from earlier work
[5] = Water solubility in deionized water; format: physicochemical; conditions: for Dissolution observed in water: 3-AP: 5 mg in 100 mL, room temperature, 2 hours, prodrug I: 8 mg in 0.5 mL, a few minutes
Procedure: In order to test the water solubility of Prodrug I (disodium salt) compared to 3-AP, the following procedure was used. To test the water solubility of 3-AP in deionized water, 5 mg of 3-AP was placed in a 125 mL erlenmeyer flask to which was added 100 mL of water. The mixture was well shaken at room temperature. […] Total water solubility of 3-AP in deionized water was <1 mg/20 mL. In the case of prodrug I (para), 8 mg of the prodrug was placed in a 50 mL erlenmeyer flask.

[6] = Conversion of Prodrug I (para) to 3-AP in vitro in presence of S9 fraction of rat liver (FIG. 9); format: in vitro ADME
Procedure: FIG. 9 depicts a graph of the conversion of Prodrug I (para) to 3-AP in the presence of liver S9 fraction.
A 1 μM solution of Prodrug I in culture media was incubated with approximately 2.5 mg of liver S9 fraction.

[7] = system: M109 tumor; test: M109 tumor growth in Balb/c mice with two vehicle controls (FIG. 11); format: in vivo
Procedure: (§1) FIGS. 10 and 11 depict a graph comparing the reduction in M109 tumor growth in Balb/c Mice treated with a control, 3-AP or Prodrug I (para).
(§2) Balb/c mice were subcutaneously injected in the right flank on Day 0 with 0.2 mL of a 5×10^6 cell/mL suspension of M109 tumor cells which had been grown to log phase in culture, trypsin digested to separate, washed with PBS and reconstituted. Injections of 3-AP, Prodrug I, or Vehicle Control were given to the […] twice on Day 3, once on Day 4, twice on Day 6 and once on Day 7. Ten mice received only injections of 3 AP, each injection providing a dose of 4.5 mg/kg body weight. Ten mice received only injections of Prodrug I, each injection providing a dose of 10 mg/kg body weight. Ten mice received only injections of the vehicle control. […] FIG. 11 also compares the reduction in M109 tumor growth in Balb/c Mice using two vehicle controls (1-phosphate buffered […] and 2- 10% DMSO). […] Control I was used as a control for the prodrug; control 2 was used for the parent drug.
(§3) Balb/c mice were subcutaneously injected in the right flank on Day 0 with 0.2 mL of a 5×10^6 cell/mL suspension of M109 tumor cells which had been grown to log phase in culture, trypsin digested to separate, washed with PBS and reconstituted. […]

[8] = Stability of Prodrug I in culture media alone, HPLC assay; format: in vitro ADME; conditions: 37° C., two hours
[9] = system: M109 tumor cells; test: In vivo efficacy, M109 tumor growth in Balb/c mice (FIG. 10); conditions: 10 mg/kg per injection vs equal molar dose of 3-AP (4.5 mg/kg)
Procedure: as §1, §2, §3

Cc1ccnc(C=NNC(N)=S)c1N [Prodrug 3-AMP, 3-amino-4-methylpyridine-2-carboxaldehyde thiosemicarbazone]
Therapeutic effects against A2780 human ovarian carcinoma [1]: much better therapeutic effects
Therapeutic effects against M-109 lung carcinoma [2]: much better therapeutic effects
Therapeutic effects against L1210 leukemia [3]: much better therapeutic effects
Antineoplastic activity in comparison with hydroxyurea (HU) [4]: significant antineoplastic activity

NC(=S)NN=Cc1ncccc1N [Prodrug 3-AP, 3-aminopyridine-2-carboxaldehyde thiosemicarbazone]
Dissolution observed in water [5]: not totally dissolved
Total water solubility in deionized water ([5]; 120 min): < 1 mg/20 mL
Stability of recovered 3-AP in liver S9 fraction ([6]; liver S9 fraction): stable
Therapeutic effects against A2780 human ovarian carcinoma [1]: much better therapeutic effects
Therapeutic effects against M-109 lung carcinoma [2]: much better therapeutic effects
Therapeutic effects against L1210 leukemia [3]: much better therapeutic effects
Antineoplastic activity in comparison with hydroxyurea (HU) [4]: significant antineoplastic activity

NC(=S)NN=Cc1ncccc1NC(=O)OCc1ccc(OP(=O)(O)O)cc1 [Prodrug I (disodium salt)]
Dissolution observed in water [5]: readily dissolved
Increase in water solubility over 3-AP ([5]; disodium salt vs 3-AP, deionized water): more than 300 fold
solubility ([5]; disodium salt, deionized water, read-out: Total water solubility in deionized water): ≥ 16 mg/mL

NC(=S)NN=Cc1ncccc1NC(=O)OCc1ccc(OP(=O)(O)O)cc1 [Prodrug I (para)]
Course of prodrug concentration with liver S9 fraction ([6]; 1 μM, approximately 2.5 mg liver S9 fraction, 37° C.): decreased very rapidly
Prodrug concentration after incubation with liver S9 fraction ([6]; 1 μM, approximately 2.5 mg liver S9 fraction, after 100 minutes at 37° C.): below detection limits
Other metabolites found ([6]; 1 μM, liver S9 fraction, 37° C.): no other metabolites were found
Rate of conversion of Prodrug I to 3-AP ([6]; liver S9 fraction, 37° C.): 20 nmole/min/mg rat liver tissue
metabolised at 1 µM ([6]; rat, 1 μM, liver S9 fraction, 37° C., read-out: Prodrug recovered as 3-AP): ~80%
Anti-tumor activity compared to 3-AP or the two controls ([7]; controls PBS and 10% DMSO): superior anti-tumor activity
Reduction of M109 tumor growth compared with 3-AP ([7]; mole-to-mole basis): more effective
Prodrug concentration in culture media alone [8]: relatively stable
3-AP found in culture media alone ([8]; HPLC): no 3-AP was found
Reduction of tumor growth compared with 3-AP ([9]; tumors measured Days 7, 10, 13, 17): significantly more effective
Reduction of tumor growth compared with 3-AP ([9]; tumors measured Days 7, 10, 13, 17, listed as Prodrug I): slightly more effective
